US20110281883A1, “4-Phenyl-pyrane-3,5-diones, 4-Phenyl-thiopyrane-3,5-diones and Cyclohexanetriones and Their Use as Insecticides, Acaricides and/or Fungicides” (Bayer Cropscience AG, priority 2009, published 2011)

Assays:
[1] = test system: mustard beetle larvae (Phaedon cochleariae); test: Phaedon cochleariae test (PHAECO spray application); type: in vivo; settings: 168 h, application rate 500 g/ha, sprayed Chinese cabbage (Brassica pekinesis) leaf-disks, after 7 days, read-out: mortality in % (good activity)
Method: Phaedon cochleariae—Test; (PHAECO Spray Application)
Solvent: 78.0 parts by weight of acetone • • 1.5 parts by weight of dimethylformamide
Emulsifier: 0.5 parts by weight of alkylaryl polyglycolether
To produce a suitable preparation of active compound, 1 part by weight of active compound is mixed with the stated amount of solvent and emulsifier, and the concentrate is diluted with emulsifier-containing water to the desired concentration.Chinese cabbage (Brassica pekinesis) leaf-disks are sprayed with a preparation of the active ingredient of the desired concentration. Once dry, the leaf disks are infested with mustard beetle larvae (Phaedon cochleariae). After 7 days mortality in % is determined. 100% means that all beetle larvae have been killed and 0% means that none of the beetle larvae have been killed.

[2] = test system: two spotted spidermite (Tetranychus urticae), OP-resistant; test: Tetranychus urticae test; OP-resistant (TETRUR spray application); type: in vivo; settings: in Phaseolus vulgaris, 144 h, read-out: mortality in % (good activity)
Method: Tetranychus urticae—Test; OP-Resistant (TETRUR Spray Application)
Solvent: 78.0 parts by weight acetone • 1.5 parts by weight dimethylformamide
Emulsifier: 0.5 parts by weight alkylarylpolyglcolether
To produce a suitable preparation of active compound, 1 part by weight of active compound is mixed with the stated amount of solvent and emulsifier, and the concentrate is diluted with emulsifier-containing water to the desired concentration.French beans (Phaseolus vulgaris) which are heavily infested with all stages of the two spotted spidermite (Tetranychus urticae), are sprayed with a preparation of the active ingredient at the desired concentration. After 6 days mortality in % is determined. 100% means that all spider mites have been killed and 0% means that none of the spider mites have been killed.

Structure (SMILES) | melting point [°C] | mortality at 500 g/ha [1] [%] | mortality at 100 g/ha [2] [%]
CCc1ccc(-c2ccc(F)cc2)cc1C1=C(O)[C@@]2(C)CC[C@H](O2)C1=O | 165 to 167 |  | 
CCc1ccc(-c2ccc(Cl)cc2)cc1C1=C(O)C(C)(C)OC(C)(COC)C1=O (centres unmarked) | 123 to 124 |  | 
CCc1ccc(-c2ccc(Cl)cc2)cc1C1=C(O)C2CCCC(C1=O)C2=O (centres unmarked) | 79.5 |  | 
CCc1ccc(-c2ccc(Cl)cc2)cc1C1=C(O)C(C)(C)C(=O)C(C)(C)C1=O [Compound B-1] |  | > 80 | ≥ 80
